Experimental data published in ChEMBL document CHEMBL5620353, “Novel antifungal triazoles with alkynyl-methoxyl side chains: Design, synthesis, and biological activity evaluation” (Eur J Med Chem, 2023).
In brackets after ≈: the same amount, converted by molar mass. Activity calls are given as the source filed them. The rule behind the calls is not given here.

What was measured:
[1] = Cytotoxicity against HUVEC cells assessed as reduction in cell survival incubated for 24 hrs by CCK-8 assay; format: toxicity, cell-based; conditions: human
Cryptococcus neoformans [2] = assay: Antifungal activity against Cryptococcus neoformans 32,609 assessed as reduction in fungal growth and viability at 0.5 to 1 ug/ml incubated for 48 hrs by spot assay; format: functional, organism-based; conditions: dose 0.5-1 µg/ml
Saccharomyces cerevisiae [3] = assay: Antifungal activity against recombinant Saccharomyces cerevisiae Y2300 overexpressing ScErg11 assessed as inhibition of fungal growth incubated for 48 hrs by microbroth dilution method; format: functional
[4] = Cytotoxicity against HUVEC cells assessed as cell survival at <16 ug/ml incubated for 24 hrs by CCK-8 assay relative to control; format: toxicity, cell-based; conditions: human, dose < 16 µg/ml, read-out: Survival
[Candida] auris = Antifungal activity against fluconazole-resistant Candida auris 919 assessed as inhibition of fungal growth incubated for 48 hrs by microbroth dilution method; format: functional; conditions: Candidozyma auris
Cytochrome P450 2C19 = Cytochrome P450 2C19 (Homo sapiens, UniProt P33261); assay: Inhibition of human CYP2C19 using mephenytoin as substrate prewarmed for 10 mins followed by NADPH addition and measured after 10 mins by LC-MS/MS analysis; format: ADME
Saccharomyces cerevisiae [5] = assay: Antifungal activity against recombinant Saccharomyces cerevisiae Y2411 overexpressing ScErg11 assessed as inhibition of fungal growth incubated for 48 hrs by microbroth dilution method; format: functional
Nakaseomyces glabratus [6] = assay: Potency index, ratio of fluconazole MIC to test compound MIC for antifungal activity against Candida glabrata 537 assessed as inhibition of fungal growth incubated for 48 hrs by microbroth dilution method; format: functional
Saccharomyces cerevisiae [7] = assay: Antifungal activity against recombinant Saccharomyces cerevisiae Y2462 overexpressing ScErg11 ScNcp1 assessed as inhibition of fungal growth incubated for 48 hrs by microbroth dilution method; format: functional
Cytochrome P450 1A2 = target: T1, Cytochrome P450 1A2 (Homo sapiens, UniProt P05177); assay: Inhibition of human CYP1A2 using phenacetin as substrate prewarmed for 10 mins followed by NADPH addition and measured after 10 mins by LC-MS/MS analysis; format: ADME
T1 sequence (P05177 whole entry): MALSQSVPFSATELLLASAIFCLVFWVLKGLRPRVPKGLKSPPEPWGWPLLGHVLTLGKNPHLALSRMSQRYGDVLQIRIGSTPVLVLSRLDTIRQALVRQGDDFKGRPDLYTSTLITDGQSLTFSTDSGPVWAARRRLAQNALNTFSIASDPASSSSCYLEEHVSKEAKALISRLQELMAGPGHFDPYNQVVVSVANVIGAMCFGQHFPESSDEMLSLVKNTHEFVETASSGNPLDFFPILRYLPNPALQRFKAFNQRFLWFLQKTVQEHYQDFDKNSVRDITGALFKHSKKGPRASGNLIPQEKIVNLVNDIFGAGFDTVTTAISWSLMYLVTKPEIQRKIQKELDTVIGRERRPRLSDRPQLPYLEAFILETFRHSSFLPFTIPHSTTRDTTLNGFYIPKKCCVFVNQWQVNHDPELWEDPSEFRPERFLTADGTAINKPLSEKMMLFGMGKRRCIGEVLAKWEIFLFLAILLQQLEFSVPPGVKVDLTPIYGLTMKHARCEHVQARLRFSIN

[8] = Metabolic stability in human liver microsomes assessed as half life at 1 uM preincubated for 10 mins followed by NADPH addition and measured upto 60 mins by LC-MS/MS analysis; format: ADME, Microsome; conditions: time < 70 min
Saccharomyces cerevisiae [9] = assay: Antifungal activity against recombinant Saccharomyces cerevisiae Y2513 overexpressing ScErg11 Y140H assessed as inhibition of fungal growth incubated for 48 hrs by microbroth dilution method; format: functional
Pichia kudriavzevii = assay: Antifungal activity against Candida krusei 4996 assessed as inhibition of fungal growth incubated for 48 hrs by microbroth dilution method; format: functional
Candida albicans [10] = assay: Antifungal activity against Candida albicans 10231 assessed as inhibition of fungal growth incubated for 48 hrs by microbroth dilution method; format: functional
[11] = Cytotoxicity against HUVEC cells assessed as cell survival at 128 ug/ml incubated for 24 hrs by CCK-8 assay relative to control; format: toxicity, cell-based; conditions: human, at 128 µg/mL, read-out: Survival
Saccharomyces cerevisiae [12] = assay: Antifungal activity against recombinant Saccharomyces cerevisiae Y2716 overexpressing CpErg11 Y132F CpCpr assessed as inhibition of fungal growth incubated for 48 hrs by microbroth dilution method; format: functional
Candida albicans [13] = assay: Antibiofilm activity against Candida albicans SC5314 preformed biofilms incubated for 24 hrs by XTT reduction assay; format: functional, organism-based; conditions: dose 0.25-64 µg/ml
Candida albicans [14] = assay: Antibiofilm activity against Candida albicans SC5314 preformed biofilms at 64 ug/ml incubated for 24 hrs by XTT reduction assay relative to control; format: functional; set-up: scale not given: the % may be the effect or the level left; conditions: dose 64 µg/ml
Saccharomyces cerevisiae [15] = assay: Antifungal activity against recombinant Saccharomyces cerevisiae Y2721 overexpressing CpErg11 CpCpr assessed as inhibition of fungal growth incubated for 48 hrs by microbroth dilution method; format: functional
Saccharomyces cerevisiae [16] = assay: Antifungal activity against recombinant Saccharomyces cerevisiae Y2459 overexpressing CaErg11 CaCpr assessed as inhibition of fungal growth incubated for 48 hrs by microbroth dilution method; format: functional
Saccharomyces cerevisiae [17] = assay: Antifungal activity against recombinant Saccharomyces cerevisiae Y570 overexpressing CaCdr1 assessed as inhibition of fungal growth incubated for 48 hrs by microbroth dilution method; format: functional
Aspergillus fumigatus = assay: Antifungal activity against Aspergillus fumigatus 7544 assessed as inhibition of fungal growth incubated for 72 hrs by microbroth dilution method; format: functional
Cytochrome P450 2C9 = Cytochrome P450 2C9 (Homo sapiens, UniProt P11712); assay: Inhibition of human CYP2C9 using diclofenac as substrate prewarmed for 10 mins followed by NADPH addition and measured after 10 mins by LC-MS/MS analysis; format: ADME
[18] = Selectivity index, ratio of IC50 for HUVEC cells to MIC for Candida albicans SC5314; format: toxicity; conditions: human, HUVEC cells versus Candida albicans SC5314; read-out: Selectivity Index
Saccharomyces cerevisiae [19] = assay: Antifungal activity against recombinant Saccharomyces cerevisiae Y2374 overexpressing CgErg11 assessed as inhibition of fungal growth incubated for 48 hrs by microbroth dilution method; format: functional
Nakaseomyces glabratus [20] = assay: Antifungal activity against Candida glabrata 537 assessed as inhibition of fungal growth incubated for 48 hrs by microbroth dilution method; format: functional
[21] = Hemolytic activity in rabbit RBC at 64 ug/ml incubated for 1 hr by absorbance based analysis; format: toxicity, cell-based, Oryctolagus cuniculus, Erythrocyte; conditions: rabbit red blood cells, at 64 µg/mL, read-out: Activity
Candida albicans [22] = assay: Antifungal activity against fluconazole-resistant Candida albicans 901 assessed as inhibition of fungal growth incubated for 48 hrs by microbroth dilution method; format: functional
Saccharomyces cerevisiae [23] = assay: Antifungal activity against recombinant Saccharomyces cerevisiae Y525 overexpressing CaMdr1 assessed as inhibition of fungal growth incubated for 48 hrs by microbroth dilution method; format: functional
Cryptococcus neoformans [24] = assay: Antifungal activity against Cryptococcus neoformans 32,609 assessed as inhibition of fungal growth incubated for 72 hrs by microbroth dilution method; format: functional
Candida albicans [25] = assay: Antifungal activity against Candida albicans SC5314 assessed as reduction in fungal growth measured after 6 to 24 hrs by optical density based method; format: functional, organism-based; conditions: dose 0.0625-16 µg/ml, time 6-24 hrs
Candida albicans [26] = assay: Antifungal activity against Candida albicans SC5314 assessed as inhibition of fungal growth incubated for 48 hrs by microbroth dilution method; format: functional

Cytochrome P450 2C9, sequence (P11712 whole entry): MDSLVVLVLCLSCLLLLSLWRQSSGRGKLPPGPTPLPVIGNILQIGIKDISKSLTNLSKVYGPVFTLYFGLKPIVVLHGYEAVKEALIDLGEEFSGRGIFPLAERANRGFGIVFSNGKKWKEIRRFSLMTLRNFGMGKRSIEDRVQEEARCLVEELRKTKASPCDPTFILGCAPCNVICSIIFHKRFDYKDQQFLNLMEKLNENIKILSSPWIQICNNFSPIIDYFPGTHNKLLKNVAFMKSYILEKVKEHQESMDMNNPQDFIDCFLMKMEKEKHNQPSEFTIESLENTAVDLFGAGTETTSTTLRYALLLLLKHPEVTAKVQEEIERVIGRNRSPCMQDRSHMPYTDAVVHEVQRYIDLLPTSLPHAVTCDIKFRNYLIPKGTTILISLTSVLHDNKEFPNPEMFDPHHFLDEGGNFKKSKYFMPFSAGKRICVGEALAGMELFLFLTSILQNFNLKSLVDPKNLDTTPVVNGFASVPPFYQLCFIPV
Cytochrome P450 2C19, sequence (P33261 whole entry): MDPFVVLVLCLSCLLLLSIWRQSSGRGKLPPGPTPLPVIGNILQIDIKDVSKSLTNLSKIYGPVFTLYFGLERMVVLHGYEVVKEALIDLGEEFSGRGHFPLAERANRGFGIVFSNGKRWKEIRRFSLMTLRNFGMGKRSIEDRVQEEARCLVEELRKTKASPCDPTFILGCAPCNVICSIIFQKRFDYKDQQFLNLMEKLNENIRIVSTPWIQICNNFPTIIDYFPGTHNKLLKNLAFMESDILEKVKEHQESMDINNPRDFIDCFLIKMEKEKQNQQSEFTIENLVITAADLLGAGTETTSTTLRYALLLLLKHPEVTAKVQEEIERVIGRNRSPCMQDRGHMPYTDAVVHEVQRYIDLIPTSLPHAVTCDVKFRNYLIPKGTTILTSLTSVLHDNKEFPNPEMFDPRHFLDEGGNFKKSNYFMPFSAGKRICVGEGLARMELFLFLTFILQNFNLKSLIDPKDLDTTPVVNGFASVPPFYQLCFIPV

SMILES | IC50 at 24 h [1] [µg/mL] | Activity (Cryptococcus neoformans [2]) | MIC (Saccharomyces cerevisiae [3]) [µg/mL] | viability at 24 h [4] [%] | MIC ([Candida] auris) [µg/mL] | IC50 (Cytochrome P450 2C19) [nM] | MIC (Saccharomyces cerevisiae [5]) [µg/mL] | Ratio (Nakaseomyces glabratus [6]) | MIC (Saccharomyces cerevisiae [7]) [µg/mL] | IC50 (Cytochrome P450 1A2) [nM] | half-life at 1 µM [8] [min] | MIC (Saccharomyces cerevisiae [9]) [µg/mL] | MIC (Pichia kudriavzevii) [µg/mL] | MIC (Candida albicans [10]) [µg/mL] | viability at 24 h, 128 ug/ml [11] [%] | MIC (Saccharomyces cerevisiae [12]) [µg/mL] | Activity (Candida albicans [13]) | Activity (Candida albicans [14]) [%] | MIC (Saccharomyces cerevisiae [15]) [µg/mL] | MIC (Saccharomyces cerevisiae [16]) [µg/mL] | also measured
C[C@@H](OCC#Cc1ccncc1)[C@](O)(Cn1cncn1)c1ccc(F)cc1F | 64.9 (≈ 169 µM) | Active | 0.031 | > 80 | 16 (≈ 41.6 µM) | 394 | 0.008 | >=8 | 0.063 | 31100 | 7.35 | 0.031 | 4 (≈ 10.4 µM) | 32 (≈ 83.2 µM) | 28.7 | 0.063 | Dose-Dependent Effect | 50.31 | 0.063 | 0.016 | MIC (Saccharomyces cerevisiae [17]): 4 µg/mL; MIC (Aspergillus fumigatus): 4 µg/mL (≈ 10.4 µM); IC50 (Cytochrome P450 2C9): 39 nM; selectivity ratio [18]: > 500; MIC (Saccharomyces cerevisiae [19]): 0.063 µg/mL; MIC (Nakaseomyces glabratus [20]): ≤ 0.125 µg/mL; hemolysis at 1 h, 64 ug/ml [21]: 1.36%; MIC (Candida albicans [22]): 32 µg/mL (≈ 83.2 µM); MIC (Saccharomyces cerevisiae [23]): 0.25 µg/mL; MIC (Cryptococcus neoformans [24]): ≤ 0.125 µg/mL; Activity (Candida albicans [25]): Dose-Dependent Effect; MIC (Candida albicans [26]): ≤ 0.125 µg/mL
C[C@@H](OCC#Cc1ccc(F)cc1F)[C@](O)(Cn1cncn1)c1ccc(F)cc1F | 76.4 (≈ 182 µM) | Active | 0.063 | > 80 | 16 (≈ 38.2 µM) | 73 | 0.008 | >=8 | 0.063 | 50700 | 50.8 | 0.031 | 4 (≈ 9.54 µM) | 8 (≈ 19.1 µM) | 36 | 0.063 | Dose-Dependent Effect | 51.39 | 0.063 | 0.016 | MIC (Saccharomyces cerevisiae [17]): 32 µg/mL; MIC (Aspergillus fumigatus): 4 µg/mL (≈ 9.54 µM); IC50 (Cytochrome P450 2C9): 23 nM; selectivity ratio [18]: > 500; MIC (Saccharomyces cerevisiae [19]): 0.063 µg/mL; MIC (Nakaseomyces glabratus [20]): ≤ 0.125 µg/mL; hemolysis at 1 h, 64 ug/ml [21]: 1.32%; MIC (Candida albicans [22]): 32 µg/mL (≈ 76.3 µM); MIC (Saccharomyces cerevisiae [23]): 0.25 µg/mL; MIC (Cryptococcus neoformans [24]): 0.5 µg/mL (≈ 1.19 µM); Activity (Candida albicans [25]): Dose-Dependent Effect; MIC (Candida albicans [26]): ≤ 0.125 µg/mL
C[C@@H](OCC#Cc1ccc(C#N)cc1)[C@](O)(Cn1cncn1)c1ccc(F)cc1F | 88.5 (≈ 217 µM) | Active | 0.031 | > 80 | 16 (≈ 39.2 µM) | 566 | 0.008 | >=8 | 0.031 | 42600 | 54.5 | 0.016 | 8 (≈ 19.6 µM) | 8 (≈ 19.6 µM) | 34.9 | 0.063 | Dose-Dependent Effect | 55.46 | 0.063 | 0.016 | MIC (Saccharomyces cerevisiae [17]): 16 µg/mL; MIC (Aspergillus fumigatus): 1 µg/mL (≈ 2.45 µM); IC50 (Cytochrome P450 2C9): 34 nM; selectivity ratio [18]: > 500; MIC (Saccharomyces cerevisiae [19]): 0.031 µg/mL; MIC (Nakaseomyces glabratus [20]): ≤ 0.125 µg/mL; hemolysis at 1 h, 64 ug/ml [21]: 1.22%; MIC (Candida albicans [22]): 16 µg/mL (≈ 39.2 µM); MIC (Saccharomyces cerevisiae [23]): 0.25 µg/mL; MIC (Cryptococcus neoformans [24]): 0.5 µg/mL (≈ 1.22 µM); Activity (Candida albicans [25]): Dose-Dependent Effect; MIC (Candida albicans [26]): ≤ 0.125 µg/mL
